Non-standard residues stand in square brackets, D forms with d. No end group written: not given here. pS = N[C@@H](COP(=O)(O)O)C(=O)O
Tests used:
[1] = system: IκBα-ubiquitin ligase (pIκBα ubiquitination); assay: In vitro ubiquitination assay of phosphorylated, NF-κB complex-associated IκBα in HeLa cell extract; assay type: biochemical, human; settings: peptide at a concentration of 400 μM; Bestatin 40 μg/ml
Experimental: Following incubation, 1 μl of anti-p65 serum was added, and the NF-κB immune complex was immobilized to Protein A-Sepharose® and subjected to in vitro ubiquitination in HeLa cell extract as described by Alkalay et al. Ubiquitinated proteins were separated by SDS-PAGE and visualized by autoradiography.
To identify the IκBα-ubiquitin ligase recognition motif, various peptides were added at varying concentrations to the reaction mixtures in the presence of the peptidase inhibitor Bestatin (40 μg/ml). The peptides spanned the N-terminal signaling domain of the protein, and were phosphorylated at one or both serine residues (32 and 36), or were unmodified or serine-substituted. These peptides were included in the ubiquitination reaction at different concentrations and tested for inhibition of pIκBα specific ubiquitination. When conjugation of free IκBα was monitored, the translated protein was added directly to the conjugation reaction mixture.

[2] = system: pIκBα degradation; assay: Ubiquitin-dependent in vitro degradation assay with extracts from stimulated HeLa cells; assay type: biochemical, human; settings: 40 μM peptide, FIG. 2
Experimental: FIG. 2 is an autoradiogram depicting the results of an in vitro ubiquitin-dependent degradation assay performed using extracts from stimulated HeLa cells. In each lane of the SDS-PAGE, the level of phosphorylated (upper band) and non-phosphorylated (lower band) HA-tagged IκBα polypeptide (SEQ ID NO: 12) following the degradation assay is shown. […] In lanes 2-6, ATP was included in the reaction mixture. 40 μM candidate modulating agents were added to the reactions shown in lanes 3-6: doubly phosphorylated IκBα peptide (pp21 (SEQ ID NO:9), lane 3); doubly phosphorylated IκBα peptide (pp19 (SEQ ID NO:8), lane 4); c-Fos phosphopeptide (ppFos (SEQ ID NO: 10), lane 5); and non-phosphorylated IκBα peptide (p21 (SEQ ID NO:9), lane 6).
The inhibitory pIκBα peptides were tested in a complementary ubiquitin-dependent in vitro degradation assay (Orian et al., J. Biol. Chem. 270:21707, 1995; Stancovski et al., Mol. Cell. Biol. 75:7106, 1995). Using this assay, only pIκBα derived from stimulated cells is degraded in vitro in a ubiquitin-dependent manner, whereas the non-phosphorylated IκBα from the same cell extract is not subject to degradation.

[3] = system: E-selectin expression in primary human vascular endothelial cells (HUVEC); assay: Microinjection into HUVEC, TNFα activation, E-selectin staining; assay type: cell-based; settings: microinjected peptide, TNFα 3 hours
Experimental: (§1) HeLa cells were plated on a grid coverslips (Cellocate, Eppendorf) 18 hours before microinjection. Microinjection was performed with a 22 amino acid pIκBα peptide (pp21; Table I and SEQ ID NO:9) or a control phospho-Fos peptide (SEQ ID NO: 10) using a semi-automated apparatus (Eppendorf). Peptides were injected into the cell cytoplasm at a concentration of 5 mg/ml in 100 mM KCl, 5 mM Na2HPO4 (pH 7.2), and immediately activated with TNFα (200 units/mL) for either 20 minutes (for NF-κB translocation) or 3 hours (for E-selectin expression). Following activation, the cells were fixed and stained with p65 specific antibodies (Mercurio et al., Genes & Dev. 7:705, 1993; Santa Cruz) or monoclonal anti-E-selectin antibodies (R&D Systems).
To further assess the functional consequences of NF-κB inhibition, the IκB-E3 inhibitory peptide was microinjected into primary human vascular endothelial cells (HUVEC; Chen et al, J. Immunol 155:3538, 1995). These cells respond to TNFα stimulation by surface expression of NF-κB regulated adhesion proteins, such as E-selection. HUVEC cells were plated, microinjected and stimulated as described above. Three hours post stimulation the cells were fixed and stained for expression of the NF-κB dependent E-selection. 75%-85% of the HUVEC cells were intensely stained for E-selectin following TNFα stimulation in several experiments. […] In contrast, the control pp-Fos peptide had no effect on E-selectin expression, as compared to non-microinjected cells (FIGS. 4F and 4H, column 4). Microinjection of a control, S32736A substituted IκBα peptide had no effect on the rate of E-selectin expression.

[4] = system: NF-κB nuclear translocation in HeLa cells; assay: Microinjection into HeLa cells, TNFα activation, p65 nuclear staining; assay type: cell-based, human; settings: 5 mg/ml peptide microinjected
Experimental: as §1

[5] = system: IκB E3 in HeLa lysate; assay: Fractionation of HeLa lysate over peptide-Sepharose columns, flow-through tested in ubiquitination assay; assay type: binding, human; settings: peptide coupled to NHS-Sepharose, HeLa extract, FIG. 3A
Experimental: pIκBα-ubiquitin conjugation and degradation requires a full complement of the ubiquitin system enzymes: E1, a specific E2 derived from the ubiquitin system fraction I, E2F1 (Alkalay et al., Proc. Natl. Acad. Sci. USA 92:10599, 1995; Chen et al., Cell 84:853, 1996) and a Fraction II-component E3. To identify the ubiquitin system component involved in the substrate recognition, HeLa lysate was fractionated over IκBα phosphopeptide columns, and the flow-through fractions were assayed for pIκBα conjugation. Peptides were coupled to NHS-Sepharose® (Pharmacia) according to the manufacturer's instructions at a concentration of 2 mg/ml. 100 μg of HeLa extract were incubated with 2.5 μl coupled resin in the presence of 0.1% NP40 and 3% ovalbumin for 1 hour at 4° C. The resin was discarded and the unbound material tested in the ubiquitination assay described above.

[6] = target: T1, pIκBα (Homo sapiens, UniProt P25963); assay: Binding of immobilized FLAG-tagged E3 family members to IκBα/NF-κB complex (Western blot); settings: FIG. 11A
T1 construct: The IκBα/NF-κB complex was immunopurified from HeLa cells; endogenous in cells; host or cells: HeLa cells
T1 sequence (P25963 whole entry): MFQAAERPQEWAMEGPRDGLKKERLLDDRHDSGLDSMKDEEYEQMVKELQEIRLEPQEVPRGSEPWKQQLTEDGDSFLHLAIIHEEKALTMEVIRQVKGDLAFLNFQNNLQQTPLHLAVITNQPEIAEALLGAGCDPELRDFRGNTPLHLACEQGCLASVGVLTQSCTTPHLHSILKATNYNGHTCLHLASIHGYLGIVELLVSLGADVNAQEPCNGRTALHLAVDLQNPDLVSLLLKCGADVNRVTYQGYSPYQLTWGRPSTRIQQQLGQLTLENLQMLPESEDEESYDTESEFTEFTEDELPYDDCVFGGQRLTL
T1 sequence (Q04206 whole entry partner): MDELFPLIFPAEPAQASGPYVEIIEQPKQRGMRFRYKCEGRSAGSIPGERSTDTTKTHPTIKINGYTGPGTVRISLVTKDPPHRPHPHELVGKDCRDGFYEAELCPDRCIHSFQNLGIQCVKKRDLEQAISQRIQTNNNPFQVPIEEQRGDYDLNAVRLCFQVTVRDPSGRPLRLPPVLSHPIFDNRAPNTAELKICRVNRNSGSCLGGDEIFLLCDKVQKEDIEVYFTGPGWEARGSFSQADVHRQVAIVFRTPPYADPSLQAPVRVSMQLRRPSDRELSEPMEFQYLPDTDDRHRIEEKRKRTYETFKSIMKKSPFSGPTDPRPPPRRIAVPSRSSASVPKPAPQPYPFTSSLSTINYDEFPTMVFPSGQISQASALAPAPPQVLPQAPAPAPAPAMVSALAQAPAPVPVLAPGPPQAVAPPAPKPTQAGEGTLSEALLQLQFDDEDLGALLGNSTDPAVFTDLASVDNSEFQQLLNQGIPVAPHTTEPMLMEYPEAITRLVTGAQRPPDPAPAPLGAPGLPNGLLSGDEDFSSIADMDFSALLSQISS
Experimental: FIGS. 11A-11C are Western blots illustrating binding and ubiquitination specificity of E3 ubiquitin ligase family members. Within these figures, mβ-TrCP indicates mouse β-TrCP, hβ-TrCP indicates human β-TrCP, Δβ-TrCP indicates human β-TrCP with a deletion of the F box region and Slimb indicates the Drosophila Slimb protein. FIG. 11A illustrates selective binding to pIκBα. Proteins were immunoprecipitated through a FLAG epitope from transfected 293T cells, incubated with immunopurified IκBα/NF-κB complex, which had been treated (−/+IKK) as indicated and the bound material was analyzed by Western blotting with the indicated antibodies. […] FIG. 11C illustrates in vitro ubiquitination of pIκBα by the E3 family member proteins. Immunopurified FLAG-tagged proteins were incubated with ^35 S-labeled IκBα/NF-κB complexes, treated (−/+IKK) as indicated and subject to ubiquitination in the presence of ATPγS, ubiquitin. E1 and UBC5C. The IκBα substrate (composed of full-length and two degradation products), pIκBα-polyubiquitin conjugates and molecular size markers are indicated on the left.
The ability of these proteins to bind pIκBα specifically and assist in its ubiquitination was examined in a cell-free system. The IκBα/NF-κB complex was immunopurified from HeLa cells and the immune complex was either phosphorylated with IKK2-EE or mock-phosphorylated as described above. It was then incubated with the following immobilized FLAG-tagged E3 family members immunoprecipitated from transfected 293 cells: mouse β-TrCP (mβ-TrCP), human β-TrCP (hβ-TrCP), human β-TrCP with a deletion of the F box region residues 122-168 (Δβ-TrCP) and the Drosophila Slimb protein. The bound material was analyzed by Western blotting with anti-IκBα and anti-FLAG antibodies. […] Furthermore, β-TrCP binding was abrogated by a peptide representing the pIκBα recognition motif (pp10; DRHDS(PO3)GLDS(PO3)M (SEQ ID NO:29); see FIG. 11B, lane 3), but not by the control peptide (lane 4), specifying the site of pIκBα recognition of the conserved DS(PO3)GLDS(PO3) (SEQ ID NO:30) sequence.

| Molecule | effect on the ubiquitination of pIκB [1] | effect on specific pIκBα degradation [2] | effect on E-selectin expression [3] | IκBα conjugation capacity of column flow-through fraction [5] | other results |
| --- | --- | --- | --- | --- | --- |
| p21: non-phosphorylated IκBα peptide, SEQ ID NO:9 (CKKERLLDDRHDSGLDSMKDEE; listed as Homo sapiens) | no detectable effect | no effect |  |  |  |
| pp21: doubly phosphorylated IκBα peptide, SEQ ID NO:9; 22 amino acid pIκBα peptide (CKKERLLDDRHD[pS]GLD[pS]MKDEE; listed as Homo sapiens) |  |  |  |  | microinjected cells with inhibition of E-selectin expression [3]: 70%-80%; microinjected cells in which TNFα-stimulated NF-κB activation was abolished ([4]; TNFα 200 units/mL 20 minutes, several experiments): 50%-70% |
| p21 S/A: serine 32, 36 to alanine substituted IκBα peptide, SEQ ID NO:11 (CKKERLLDDRHDAGLDAMKDEE; listed as Homo sapiens) | no detectable effect |  | no effect | retained full IκBα conjugation capacity |  |
| ppFos: c-Fos phosphopeptide, SEQ ID NO:10, control (IGRRGKVEQLSPEEEEKRR; not fully specified (residue 11); also: phosphorylated, sites not given here; listed as Homo sapiens) | no detectable effect | no effect | no effect | retained full IκBα conjugation capacity | effect on the rate of NF-κB induced nuclear translocation ([4]; compared to non-microinjected cells): no effect |
| mβ-TrCP: FLAG-tagged mouse β-TrCP, E3 family member (protein, left off: small tags and cut ends, FLAG-tagged mouse β-TrCP, E3 family member) MDPAEAVLQEKALKFMNSSEREDCNNGEPPRKIIPEKNSLRQTYNSCARLCINQETVCLTSTAMKTENCVAKAKLANGTSSMIVPKQRKLSASYEKEKELCVKYFEQWSESDQVEFVEHLISQMCHYQHGHINSYLKPMLQRDFITALPARGLDHIAENILSYLDAKSLCAAELVCKEWYRVTSDGMLWKKLIERMVRTDSLWRGLAERRGWGQYLFKNKPPDENAPPNSFYRALYPKIIQDIETIESNWRCGRHSLQRIHCRSETSKGVYCLQYDDQKIVSGLRDNTIKIWDKSTLECKRILTGHTGSVLCLQYDERVIITGSSDSTVRVWDVNAGEMLNTLIHHCEAVLHLRFNNGMMVTCSKDRSIAVWDMASPTDITLRRVLVGHRAAVNVVDFDDKYIVSASGDRTIKVWNTSTCEFVRTLNGHKRGIACLQYRDRLVVSGSSDNTIRLWDIECGACLRVLEGHEELVRCIRFDNKRIVSGAYDGKIKVWDLMAALDPRAPAGTLCLRTLVEHSGRVFRLQFDEFQIVSSSHDDTILIWDFLNDPAAHAEPPRSPSRTYTYISR |  |  |  |  | relative binding of IκBα / pIκBα ([6]; comparison between family members): far better than the highly homologous Drosophila protein; binding to IKK-phosphorylated versus mock-phosphorylated IκBα ([6]; FLAG-tagged protein from transfected 293 cells): exclusively bound IKK-phosphorylated, but not mock-phosphorylated, IκBα |
